Values joined by “and” are separate entries in the source; they are usually repeats but may differ in a detail not shown here. Equal entries are not always repeated. Where two headings read alike, the source gives them in different places.
Tests used:
PKC mu (PKCm/PRKD1) = PKC mu (PKCm/PRKD1) (Homo sapiens, UniProt Q15139); test: In vitro kinase assay, PKC mu; format: biochemical; details: 10 μM ATP
From the text: (§1) Supplementary Table 4. In vitro kinase assay showing the IC 50 concentration of ENDX and
(§2) of the 12 PKC family members.
(§3) (1 picture or pasted object on this page, not shown here)

PKC beta 2 (PKCb2) = PKC beta 2 (PKCb2) (Homo sapiens, UniProt P05771); test: In vitro kinase assay, PKC beta 2; format: biochemical; details: 10 μM ATP
From the text: as §1, §2, §3

[1] = mice, cited from earlier work; for Cmax: read-out: Plasma Cmax
[2] = system: MCF7AC1 aromatase inhibitor-sensitive and -resistant models; design: method as in PMID 32430040; details: cited from earlier work
[3] = cited from earlier work
[4] = system: PKCβ1 and AKT^Ser473 phosphorylation in MDAMB231 cells; test: Immunoblot of PKCβ1 and pAKT^Ser473, MDAMB231; format: cell-based, human; details: 5 µM, 2 h pretreatment, 100 nM insulin 1 h
From the text: To determine whether the observed effects of ENDX on PKCβ1 degradation and AKT^Ser473 phosphorylation inhibition are dependent on the presence of ERα, we additionally evaluated ENDX effects on PKCβ1 degradation and AKT^Ser473 phosphorylation in the ER negative (ER-) MDAMB231 breast cancer cells and nonbreast HEK293F cells, a human embryonic kidney cell line, both of which express higher amounts of PKCβ1 compared to ERα+ MCF7AC1 cells (Supplementary Fig. 5a). […] To determine whether the addition of ERα to the MDAMB231 cell line could facilitate ENDX effects on PKCβ1, we performed doxycycline (dox)-induced ERα protein expression in MDAMB231 cells and evaluated ENDX effects on PKCβ1 using the above-mentioned experimental conditions. […] Additionally, we pretreated MDAMB231 and HEK293F cells with or without 5 µM ENDX for 1 h followed by 0 or 200 nM PMA treatment for 20 min and evaluated effects on PKCβ1.
Supplementary Figure 5. Effects of ENDX on PKCβ1, phospho -PKCB1Ser661 and phospho-AKTSer473 expression levels in ERα- breast cancer cells. a, Basal expression of PKCβ1 and ERα in the indicated cell lines. […]

PKC gamma (PKCg) = PKC gamma (PKCg) (Homo sapiens, UniProt P05129); test: In vitro kinase assay, PKC gamma; format: biochemical; details: 10 μM ATP
From the text: as §1, §2, §3

[5] = phase I, cited from earlier work; for Cmax: read-out: Peak serum concentration (Cmax)
PKCβ1 in MCF7AC1 cells = test: Immunoblot of PKCβ1 and pPKCβ1^Ser661, MCF7AC1; format: cell-based, human; details: serum starved; for Effect on PMA-stimulated PKCβ1^Ser661 phosphorylation: 2 h pretreatment, 200 nM PMA 20 min
Method: The ENDX hydrochloride utilized in this study was synthesized in collaboration between Mayo Clinic and National Institute of Health (NIH). Estrogen deprived MCF7AC1 were treated with vehicle control or ENDX (National Cancer Institute) for 24 h. For the phorbol 12-myristate 13-acetate (PMA) (LC Laboratories, #P-1680) experiments, MCF7AC1 cells were maintained in serum-free medium for 24 h prior to pretreatment with vehicle or ENDX for 2 h followed by treatment with 20 or 200 nM PMA for 20 min. For the insulin (Sigma-Aldrich, #I0516) experiments, MCF7AC1 and T47D cells were maintained in serum-free medium for 24 h prior to pretreatment with vehicle control or drugs for 2 h followed by treatment with 100 nM insulin for 1 h.
Protein lysates were prepared using the RIPA lysis buffer system (ChemCruz #sc-24948) and quantified using the DC^TM Protein Assay reagents (Bio-Rad #5000112). Equal amounts of protein lysates were separated on 10% Criterion gels (Bio-Rad #3450112), transferred to PVDF membranes (Bio-Rad #1620177), blocked in TBST-5% milk and probed with primary antibodies listed in Supplementary Table 5, at the indicated dilutions. Membranes were incubated with HRP-conjugated anti-rabbit (CST #7074) or anti-mouse (CST #7076) secondary antibodies and visualized using chemiluminescent West Pico (Thermo Scientific #34580) or West Femto (Thermo Scientific #34096) reagents and a Li-Cor Odyssey® XF imager. Protein lysates from the MCF7AC1 xenograft model were obtained from a previous study. Quantitation of the protein bands signal intensity was performed using the NIH ImageJ image analysis software (https://imagej.nih.gov/ij///index.html). For the quantitation of the phospho protein levels, we first normalized total protein levels to β-actin loading control and used these values to normalize the phospho protein levels and compared change in protein expression levels relative to vehicle control normalized to 1.0. For the quantitation of total protein levels, we normalized the total protein levels to β-actin and compared change in expression levels relative to vehicle control normalized to 1.0. All blots were processed in parallel and derived from the same experiments. Unprocessed immunoblot images are provided in Supplementary Figs. 9–13.

MDAMB231 cells = test: Crystal violet growth assay, MDAMB231; format: cell-based, human; details: 0–10 µM tested, day seven
From the text: Supplementary Figure 8. […]
ANOVA. b, Effects of ENDX on cell proliferation at the indicated concentrations on day seven of
treatment. […]

Chain of PKC beta 2 (PKCb2) (P05771 1-673 isoform P05771-2): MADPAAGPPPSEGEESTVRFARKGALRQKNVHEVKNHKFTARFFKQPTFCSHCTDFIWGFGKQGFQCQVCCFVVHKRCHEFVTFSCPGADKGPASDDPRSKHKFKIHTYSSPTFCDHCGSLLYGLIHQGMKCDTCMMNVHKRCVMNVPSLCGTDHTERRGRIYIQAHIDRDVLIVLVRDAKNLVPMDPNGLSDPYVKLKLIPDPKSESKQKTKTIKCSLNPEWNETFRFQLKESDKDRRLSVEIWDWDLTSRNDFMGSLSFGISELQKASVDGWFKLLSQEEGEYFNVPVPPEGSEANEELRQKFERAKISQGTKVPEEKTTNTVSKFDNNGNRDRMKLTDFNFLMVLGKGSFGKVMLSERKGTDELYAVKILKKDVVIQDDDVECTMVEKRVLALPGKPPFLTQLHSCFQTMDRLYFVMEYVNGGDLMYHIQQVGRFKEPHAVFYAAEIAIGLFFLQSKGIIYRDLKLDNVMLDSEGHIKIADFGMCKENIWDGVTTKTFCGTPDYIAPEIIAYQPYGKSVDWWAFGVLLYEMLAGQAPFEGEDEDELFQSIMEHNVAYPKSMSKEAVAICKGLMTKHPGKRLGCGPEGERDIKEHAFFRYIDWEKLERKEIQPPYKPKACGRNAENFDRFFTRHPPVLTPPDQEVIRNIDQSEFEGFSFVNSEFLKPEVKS
Chain of PKC mu (PKCm/PRKD1) (Q15139 whole entry): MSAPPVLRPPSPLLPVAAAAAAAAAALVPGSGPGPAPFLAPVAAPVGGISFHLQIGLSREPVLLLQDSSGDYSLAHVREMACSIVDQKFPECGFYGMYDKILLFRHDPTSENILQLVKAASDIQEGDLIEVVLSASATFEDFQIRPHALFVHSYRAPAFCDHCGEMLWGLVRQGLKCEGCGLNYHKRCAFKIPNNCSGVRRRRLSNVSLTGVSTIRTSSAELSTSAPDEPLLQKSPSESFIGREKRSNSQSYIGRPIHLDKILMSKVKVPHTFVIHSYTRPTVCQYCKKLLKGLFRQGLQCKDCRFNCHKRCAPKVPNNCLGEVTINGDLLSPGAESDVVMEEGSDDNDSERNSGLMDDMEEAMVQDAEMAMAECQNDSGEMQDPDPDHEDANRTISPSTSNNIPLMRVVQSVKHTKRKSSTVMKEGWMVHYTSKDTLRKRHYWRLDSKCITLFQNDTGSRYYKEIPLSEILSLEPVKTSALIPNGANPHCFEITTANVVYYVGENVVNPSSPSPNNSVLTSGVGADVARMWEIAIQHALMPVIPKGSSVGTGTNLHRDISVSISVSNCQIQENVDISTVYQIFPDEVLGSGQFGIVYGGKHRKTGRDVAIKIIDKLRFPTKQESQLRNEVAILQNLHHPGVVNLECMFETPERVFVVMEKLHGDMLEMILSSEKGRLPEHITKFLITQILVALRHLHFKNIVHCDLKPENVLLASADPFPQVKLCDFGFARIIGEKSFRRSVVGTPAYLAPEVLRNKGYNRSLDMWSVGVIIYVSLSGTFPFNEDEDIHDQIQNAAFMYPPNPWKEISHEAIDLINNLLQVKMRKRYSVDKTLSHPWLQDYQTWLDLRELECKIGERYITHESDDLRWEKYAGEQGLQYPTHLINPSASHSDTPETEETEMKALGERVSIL

CC/C(=C(\c1ccc(O)cc1)c1ccc(OCCNC)cc1)c1ccccc1 [ENDX, Z-endoxifen]
IC50 (PKC mu (PKCm/PRKD1)): 31.6 µM
IC50 (PKC beta 2 (PKCb2)): 43.3 µM
Plasma concentration ([1]; 25 mg/kg for five consecutive days, 25 mg/kg): 73.1 ± 16.8 ng/ml and 0.20 ± 0.04 µM
Plasma concentration ([1]; 100 mg/kg for five consecutive days, 100 mg/kg): 1700 ± 60 ng/ml and 4.55 ± 0.16 µM
Plasma Cmax ([1]; single dose 25 mg/kg): 103 ± 97 ng/mL
Cmax ([1]; single dose 25 mg/kg): 280 ± 260 nM
Plasma Cmax ([1]; single dose 75 mg/kg): 660 ± 511 ng/mL
Cmax ([1]; single dose 75 mg/kg): 1770 ± 1370 nM
In vivo antitumor activity [2]: superior in vivo antitumor activity compared to TAM and letrozole
Effect on uterine weight and epithelial cell height ([3]; intact rats): substantially lowered uterine weight and increased epithelial cell height
Uterotrophic potency ([3]; ovariectomized Sprague-Dawley rats): less potent than estradiol in eliciting uterotrophic effects
Effect on PKCβ1 protein levels [4]: did not impact PKCβ1 protein levels
Effect on insulin induced AKT^Ser473 phosphorylation [4]: did not inhibit this phosphorylation
IC50 (PKC gamma (PKCg)): 49.7 µM
Peak serum concentration (Cmax) ([5]; Day 28, 80 mg/day): 913 ± 142 ng/mL
Cmax ([5]; Day 28, 80 mg/day): 2440 ± 380 nM
Peak serum concentration (Cmax) ([5]; Day 28, 200 mg/day): 1641 ± 830 ng/mL
Cmax ([5]; Day 28, 200 mg/day): 4390 ± 2220 nM
Effect on PKCβ1^Ser661 phosphorylation in insulin treated cells (PKCβ1 in MCF7AC1 cells; 100 nM insulin 1 h): no effects on PKCβ1^Ser661 phosphorylation
Effect on PKCβ1 total protein in insulin treated cells (PKCβ1 in MCF7AC1 cells; 100 nM insulin 1 h, ENDX 0.01, 0.1, 5 µM, TAM 0.1 µM, ICI 0.1 µM): reduced PKCβ1 total protein levels
Effect on PMA-stimulated PKCβ1^Ser661 phosphorylation (PKCβ1 in MCF7AC1 cells; 5 μM): minimal
Effect on PMA-stimulated PKCβ1^Ser661 phosphorylation (PKCβ1 in MCF7AC1 cells; 0.01, 0.1 μM): no
Concentration robustly reducing PKCβ1 total protein levels (PKCβ1 in MCF7AC1 cells; PMA-stimulated, 0.01, 0.1 and 5 μM tested): 5 µM
Concentrations at which growth was inhibited (MDAMB231 cells): ≥ 7.5 µM

Source: article PMC10730845, “Endoxifen downregulates AKT phosphorylation through protein kinase C beta 1 inhibition in ERα+ breast cancer” (NPJ Breast Cancer, 2023)
